The source made the active and inactive calls. The calls are words filed in the database; no cut-off is given here.
Tests used:
Type in all cases: functional, organism-based
Klebsiella aerogenes = assay: Antimicrobial activity against Enterobacter aerogenes Kruse 1896 by Kirby and Baur method
Kocuria rosea = assay: Antimicrobial activity against Micrococcus roseus Flugge 1886 by Kirby and Baur method
Staphylococcus aureus = assay: Antimicrobial activity against Staphylococcus aureus Rosenbach 1884 by Kirby and Baur method
Salmonella typhi = assay: Antimicrobial activity against Salmonella typhi Zopf 1884 by Kirby and Baur method; settings: Salmonella enterica subsp. enterica serovar Typhi
Escherichia coli = assay: Antimicrobial activity against Escherichia coli Migula 1895 by Kirby and Baur method
Providencia rettgeri = assay: Antimicrobial activity against Proteus rettgeri Hadley 1918 by Kirby and Baur method
Streptococcus sp. = assay: Antimicrobial activity against Streptococcus sp. Rosenbach 1884 by Kirby and Baur method
Candida = assay: Antimicrobial activity against Candida sp. Berkhout by Kirby and Baur method

**Q.** C=C1CCC2CC1C(C)(C)CC(O)/C=C\2C (stereo not drawn) was tested. Which Activity (Klebsiella aerogenes) did it give?
**A.** Its Activity is “inactive”.

**Q.** And the Activity (Kocuria rosea)?
**A.** Its Activity is “inactive”.

**Q.** What about the Activity (Staphylococcus aureus) of the same molecule?
**A.** Its Activity is “Active”.

**Q.** And the Activity (Salmonella typhi)?
**A.** The Activity was “inactive”.

**Q.** What about the Activity (Escherichia coli) of the same molecule?
**A.** The Activity was “inactive”.

**Q.** And the Activity (Providencia rettgeri)?
**A.** Its Activity is “inactive”.

**Q.** What about the Activity (Streptococcus sp.) of the same molecule?
**A.** The Activity was “inactive”.

**Q.** And the Activity (Candida)?
**A.** Its Activity is “inactive”.

— ChEMBL document CHEMBL1151399, “Identification of terpenoids from the leaves of Piptocarpha paradoxa and their biological activities” (J Nat Prod, 1982)
